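Each compound was tested at five concentrations against cells in 96-well plates for 48 hours. The concentration for 50% growth inhibition is given as GI50.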 Calls of active or inactive are those of the source. Rule as the data show it: active = GI50 up to about 1.1 µM and inactive = higher.
Tests used:
Test in all cases: NCI tumour cell line growth inhibition, 48 h
786-0 = test system: 786-0
A498 = test system: A498
A549 = test system: A549
ACHN = test system: ACHN
BT-549 = test system: BT-549
CCRF-CEM = test system: CCRF-CEM
COLO 205 = test system: COLO 205
DU-145 = test system: DU-145
EKVX = test system: EKVX
HCC 2998 = test system: HCC 2998
HCT-116 = test system: HCT-116
HCT-15 = test system: HCT-15
HL-60 = test system: HL-60
HOP-62 = test system: HOP-62
HOP-92 = test system: HOP-92
HT-29 = test system: HT-29
Hs-578T = test system: Hs-578T
IGROV-1 = test system: IGROV-1
K562 = test system: K562
KM12 = test system: KM12
LOX IMVI = test system: LOX IMVI
M14 = test system: M14
MCF7 = test system: MCF7
MDA-MB-231 = test system: MDA-MB-231
MDA-MB-435 = test system: MDA-MB-435
MDA-N = test system: MDA-N
MOLT-4 = test system: MOLT-4
Malme-3M = test system: Malme-3M
NCI-H226 = test system: NCI-H226
NCI-H23 = test system: NCI-H23
NCI-H460 = test system: NCI-H460
NCI-H522 = test system: NCI-H522
NCI/ADR-RES = test system: NCI/ADR-RES
OVCAR-3 = test system: OVCAR-3
OVCAR-4 = test system: OVCAR-4
OVCAR-5 = test system: OVCAR-5
OVCAR-8 = test system: OVCAR-8
PC-3 = test system: PC-3
RPMI-8226 = test system: RPMI-8226
RXF 393 = test system: RXF 393
SF-268 = test system: SF-268
SF-295 = test system: SF-295
SF-539 = test system: SF-539
SK-MEL-28 = test system: SK-MEL-28
SK-MEL-2 = test system: SK-MEL-2
SK-MEL-5 = test system: SK-MEL-5
SK-OV-3 = test system: SK-OV-3
SN12C = test system: SN12C
SNB-19 = test system: SNB-19
SNB-75 = test system: SNB-75
SR = test system: SR
SW-620 = test system: SW-620
T47D = test system: T47D
TK-10 = test system: TK-10
U-251 = test system: U-251
UACC-257 = test system: UACC-257
UACC-62 = test system: UACC-62
UO-31 = test system: UO-31
CAKI-1 = test system: CAKI-1

For `O=C(CCCl)NN=C1NCCN1`, the GI50 (786-0) was > 100 µM (inactive), the GI50 (A498) was > 100 µM (inactive) and the GI50 (A549) was > 100 µM (inactive). The GI50 (ACHN) was > 100 µM (inactive), the GI50 (BT-549) was > 100 µM (inactive) and the GI50 (CCRF-CEM) was > 100 µM (inactive). For the same molecule, the GI50 (COLO 205) was > 100 µM (inactive), the GI50 (DU-145) was > 100 µM (inactive) and the GI50 (EKVX) was > 100 µM (inactive). The GI50 (HCC 2998) was > 100 µM (inactive), the GI50 (HCT-116) was > 100 µM (inactive) and the GI50 (HCT-15) was > 100 µM. For the same molecule, the GI50 (HL-60) was > 100 µM (inactive), the GI50 (HOP-62) was > 100 µM (inactive) and the GI50 (HOP-92) was > 100 µM (inactive). The GI50 (HT-29) was > 100 µM (inactive), the GI50 (Hs-578T) was > 100 µM (inactive) and the GI50 (IGROV-1) was > 100 µM (inactive). The GI50 (K562) was > 100 µM (inactive), the GI50 (KM12) was > 100 µM (inactive) and the GI50 (LOX IMVI) was > 100 µM (inactive). The GI50 (M14) was > 100 µM (inactive), the GI50 (MCF7) was > 100 µM (inactive) and the GI50 (MDA-MB-231) was > 100 µM (inactive). The GI50 (MDA-MB-435) was > 100 µM (inactive), the GI50 (MDA-N) was > 100 µM (inactive) and the GI50 (MOLT-4) was > 100 µM (inactive). The GI50 (Malme-3M) was > 100 µM (inactive), the GI50 (NCI-H226) was > 100 µM (inactive) and the GI50 (NCI-H23) was > 100 µM (inactive). For the same molecule, the GI50 (NCI-H460) was > 100 µM (inactive), the GI50 (NCI-H522) was > 100 µM (inactive) and the GI50 (NCI/ADR-RES) was > 100 µM (inactive). The GI50 (OVCAR-3) was > 100 µM (inactive), the GI50 (OVCAR-4) was > 100 µM (inactive) and the GI50 (OVCAR-5) was > 100 µM (inactive). The GI50 (OVCAR-8) was > 100 µM (inactive), the GI50 (PC-3) was > 100 µM (inactive) and the GI50 (RPMI-8226) was > 100 µM (inactive). For the same molecule, the GI50 (RXF 393) was > 100 µM (inactive), the GI50 (SF-268) was > 100 µM (inactive) and the GI50 (SF-295) was > 100 µM (inactive). The GI50 (SF-539) was > 100 µM (inactive), the GI50 (SK-MEL-28) was > 100 µM (inactive) and the GI50 (SK-MEL-2) was > 100 µM (inactive). The GI50 (SK-MEL-5) was > 100 µM (inactive), the GI50 (SK-OV-3) was > 100 µM (inactive) and the GI50 (SN12C) was > 100 µM (inactive). For the same molecule, the GI50 (SNB-19) was > 100 µM (inactive), the GI50 (SNB-75) was > 100 µM (inactive) and the GI50 (SR) was > 100 µM (inactive). For the same molecule, the GI50 (SW-620) was > 100 µM (inactive), the GI50 (T47D) was > 100 µM (inactive) and the GI50 (TK-10) was > 100 µM (inactive). For the same molecule, the GI50 (U-251) was > 100 µM (inactive), the GI50 (UACC-257) was > 100 µM (inactive) and the GI50 (UACC-62) was > 100 µM (inactive). The GI50 (UO-31) was > 100 µM (inactive).
`Clc1ccc(CCNCCNC2(c3cc4ccccc4s3)CCCCC2)cc1Cl` was tested, and the GI50 (786-0) was 1.95 µM (inactive), the GI50 (A498) was 1.78 µM (inactive) and the GI50 (A549) was 1.81 µM (inactive). For the same molecule, the GI50 (ACHN) was 1.73 µM (inactive), the GI50 (BT-549) was 1.94 µM (inactive) and the GI50 (CAKI-1) was 1.87 µM (inactive). For the same molecule, the GI50 (CCRF-CEM) was 2.54 µM (inactive), the GI50 (COLO 205) was 1.58 µM (inactive) and the GI50 (DU-145) was 1.88 µM (inactive). The GI50 (EKVX) was 2.08 µM (inactive), the GI50 (HCC 2998) was 1.5 µM (inactive) and the GI50 (HCT-116) was 1.73 µM (inactive). The GI50 (HCT-15) was 1.92 µM, the GI50 (HOP-62) was 1.26 µM (inactive) and the GI50 (HOP-92) was 1.68 µM (inactive). The GI50 (HT-29) was 1.83 µM (inactive), the GI50 (Hs-578T) was 2.05 µM (inactive) and the GI50 (IGROV-1) was 1.81 µM (inactive). The GI50 (K562) was 2.31 µM (inactive), the GI50 (KM12) was 1.6 µM (inactive) and the GI50 (LOX IMVI) was 1.74 µM (inactive). The GI50 (M14) was 2.01 µM (inactive), the GI50 (MCF7) was 1.71 µM (inactive) and the GI50 (MDA-MB-231) was 1.78 µM (inactive). For the same molecule, the GI50 (MDA-MB-435) was 2.02 µM (inactive), the GI50 (MDA-N) was 1.84 µM (inactive) and the GI50 (MOLT-4) was 2.49 µM (inactive). For the same molecule, the GI50 (Malme-3M) was 1.88 µM (inactive), the GI50 (NCI-H226) was 1.87 µM (inactive) and the GI50 (NCI-H23) was 1.78 µM (inactive). The GI50 (NCI-H460) was 1.73 µM (inactive), the GI50 (NCI-H522) was 1.84 µM (inactive) and the GI50 (NCI/ADR-RES) was 1.8 µM (inactive). The GI50 (OVCAR-3) was 1.45 µM (inactive), the GI50 (OVCAR-4) was 1.64 µM (inactive) and the GI50 (OVCAR-5) was 1.85 µM (inactive). For the same molecule, the GI50 (OVCAR-8) was 1.84 µM (inactive), the GI50 (PC-3) was 1.73 µM (inactive) and the GI50 (RPMI-8226) was 2.34 µM (inactive). The GI50 (RXF 393) was 2.01 µM (inactive), the GI50 (SF-268) was 1.79 µM (inactive) and the GI50 (SF-295) was 1.59 µM (inactive). The GI50 (SK-MEL-28) was 1.79 µM (inactive), the GI50 (SK-MEL-2) was 1.76 µM (inactive) and the GI50 (SK-MEL-5) was 1.72 µM (inactive). The GI50 (SK-OV-3) was 1.46 µM (inactive), the GI50 (SN12C) was 1.96 µM (inactive) and the GI50 (SNB-19) was 1.92 µM (inactive). The GI50 (SNB-75) was 1.96 µM (inactive), the GI50 (SR) was 2.02 µM (inactive) and the GI50 (SW-620) was 1.86 µM (inactive). The GI50 (T47D) was 1.95 µM (inactive), the GI50 (TK-10) was 1.7 µM (inactive) and the GI50 (U-251) was 1.63 µM (inactive). The GI50 (UACC-257) was 1.81 µM (inactive), the GI50 (UACC-62) was 1.74 µM (inactive) and the GI50 (UO-31) was 1.85 µM (inactive).
With `O=[N+]([O-])c1ccc2nc(Cl)n[n+]([O-])c2c1` the GI50 (786-0) was 8.3 µM (inactive), the GI50 (A498) was 0.65 µM (active) and the GI50 (A549) was 22 µM (inactive). For the same molecule, the GI50 (ACHN) was 14 µM (inactive), the GI50 (BT-549) was 16.2 µM (inactive) and the GI50 (CAKI-1) was 16 µM (inactive). The GI50 (CCRF-CEM) was 1.06 µM (active), the GI50 (COLO 205) was 9.04 µM (inactive) and the GI50 (DU-145) was 17.9 µM (inactive). The GI50 (EKVX) was 18.5 µM (inactive), the GI50 (HCC 2998) was 16.3 µM (inactive) and the GI50 (HCT-116) was 12.7 µM (inactive). The GI50 (HCT-15) was 13.4 µM, the GI50 (HL-60) was 0.668 µM (active) and the GI50 (HOP-62) was 17.1 µM (inactive). For the same molecule, the GI50 (HT-29) was 11.7 µM (inactive), the GI50 (Hs-578T) was 37 µM (inactive) and the GI50 (IGROV-1) was 10.3 µM (inactive). The GI50 (K562) was 1.15 µM (inactive), the GI50 (KM12) was 23.2 µM (inactive) and the GI50 (LOX IMVI) was 1.8 µM (inactive). The GI50 (M14) was 14.3 µM (inactive), the GI50 (MCF7) was 5.52 µM (inactive) and the GI50 (MDA-MB-231) was 11.7 µM (inactive). The GI50 (MDA-MB-435) was 13.8 µM (inactive), the GI50 (MDA-N) was 11.6 µM (inactive) and the GI50 (MOLT-4) was 1.15 µM (inactive). The GI50 (Malme-3M) was 15.9 µM (inactive), the GI50 (NCI-H226) was 19.6 µM (inactive) and the GI50 (NCI-H23) was 15.3 µM (inactive). The GI50 (NCI-H460) was 20.3 µM (inactive), the GI50 (NCI-H522) was 12 µM (inactive) and the GI50 (NCI/ADR-RES) was 24.3 µM (inactive). For the same molecule, the GI50 (OVCAR-3) was 7.43 µM (inactive), the GI50 (OVCAR-4) was 12.2 µM (inactive) and the GI50 (OVCAR-5) was 17 µM (inactive). For the same molecule, the GI50 (OVCAR-8) was 15.2 µM (inactive), the GI50 (PC-3) was 13 µM (inactive) and the GI50 (RPMI-8226) was 2.89 µM (inactive). The GI50 (RXF 393) was 15.1 µM (inactive), the GI50 (SF-268) was 14.1 µM (inactive) and the GI50 (SF-295) was 22.7 µM (inactive). The GI50 (SF-539) was 11.7 µM (inactive), the GI50 (SK-MEL-28) was 18.3 µM (inactive) and the GI50 (SK-MEL-2) was 15.2 µM (inactive). The GI50 (SK-MEL-5) was 6.68 µM (inactive), the GI50 (SK-OV-3) was 17.5 µM (inactive) and the GI50 (SN12C) was 16.1 µM (inactive). The GI50 (SNB-19) was 25.5 µM (inactive), the GI50 (SNB-75) was 14.4 µM (inactive) and the GI50 (SR) was 2.2 µM (inactive). For the same molecule, the GI50 (SW-620) was 12.4 µM (inactive), the GI50 (T47D) was 16.8 µM (inactive) and the GI50 (TK-10) was 16.8 µM (inactive). The GI50 (U-251) was 16.6 µM (inactive), the GI50 (UACC-257) was 15.4 µM (inactive) and the GI50 (UACC-62) was 14 µM (inactive). The GI50 (UO-31) was 17 µM (inactive).

Reference: ChEMBL document CHEMBL1201862, “PubChem BioAssay data set” (2004)
